Series [1] deals with OC[C@H]1O[C@H](O[C@H]2[C@H](O)[C@@H](O)C(O)O[C@@H]2CO)[C@H](O)[C@@H](O)[C@@H]1O. As to the kind of experiment: cells, lysate or membranes named. Conditions: pH 7.0.
The test system of series [2] is OC[C@H]1OC(O)[C@H](O)[C@@H](O)[C@@H]1O. Put plainly: cells, lysate or membranes named.
Series [3] deals with Ralstonia solanacearum IPO1609 transmembrane dehydrogenase, wild type, SEQ ID NO:10 (Ralstonia solanacearum, UniProt A0ABF7REW7).
The target of series [4] is Burkholderia cepacia KS1 glucose dehydrogenase (α-subunit SEQ ID NO:3), variant QYR, 326Gln+365Tyr+472Arg (Burkholderia cepacia, UniProt Q8GQE7, A472R/S326Q/S365Y). In kind it is biochemical. Conditions: pH 7.
In series [5] the target is Burkholderia thailandensis TXDOH hypothetical protein BthaT_07876 (SEQ ID NO:8), variant QYY, S324Q/S363Y/A470Y (Burkholderia thailandensis, UniProt Q2T5D8, A470Y/S324Q/S363Y).
For series [6], the target named is Burkholderia cepacia KS1 glucose dehydrogenase (α-subunit SEQ ID NO:3), variant QYY, 326Gln+365Tyr+472Tyr (Burkholderia cepacia, UniProt Q8GQE7, A472Y/S326Q/S365Y). In kind it is biochemical. The note with it: pH 7.
For series [7], the target named is Burkholderia cepacia KS1 glucose dehydrogenase (α-subunit SEQ ID NO:3), variant QYA (QY), 326Gln+365Tyr (Burkholderia cepacia, UniProt Q8GQE7, S326Q/S365Y). It is filed as biochemical. The note with it: pH 7.
For series [8], the target named is Ralstonia pickettii 12D FAD dependent oxidoreductase (SEQ ID NO:9), variant QYY, S327Q/S366Y/A473Y (Ralstonia pickettii, UniProt A0ABM9ITV6, A473Y/S327Q/S366Y). It is filed as biochemical.
Series [9] deals with Burkholderia cenocepacia J2315 putative oxidoreductase (SEQ ID NO:7), variant QYY, S326Q/S365Y/A472Y (Burkholderia cenocepacia, UniProt B4ELB3, A472Y/S326Q/S365Y). In kind it is biochemical. The note with it: read-out: Km (Mal).
Series [10] addresses Ralstonia pickettii 12D FAD dependent oxidoreductase, wild type, SEQ ID NO:9 (Ralstonia pickettii, UniProt A0ABM9ITV6).

What is called Km is the concentration of substrate that gives half-maximal velocity. (Burkholderia cenocepacia J2315): in series [1], the Km amounted to 1300 µM and the Vmax amounted to 1.87 U/mL. Moreover, in series [2] (pH 7.0), the Michaelis-Menten constant (Km) was 110 µM and the Vmax is 2.05 U/mL.

Consider (Ralstonia solanacearum IPO1609), for which the Km in [1] is 2640 µM.

Consider `OC[C@H]1OC(O)[C@H](O)[C@@H](O)[C@@H]1O` (some centres unmarked) [Glucose, glucose], for which the “Vmax (Glc)” value in series [3] is listed as 0.14 U/mL; in [5], 48.8 U/mL; in [8], 1.62 U/mL. The “Vmax (Glc.)” value in [4] is “Vmax (Glc.) = 93.5 U/mg protein”; in series [6], “Vmax (Glc.) = 131.6 U/mg protein”; in [7], “Vmax (Glc.) = 149.3 U/mg protein”.

Turning to `OC[C@H]1O[C@H](O[C@H]2[C@H](O)[C@@H](O)C(O)O[C@@H]2CO)[C@H](O)[C@@H](O)[C@@H]1O` (some centres unmarked) [Mal, maltose], the entries for the “Vmax (Mal)” value in [3] and in [10] were 0.14 U/mL and 0.94 U/mL, respectively. In series [9], the Km was above 100000 µM.

As to (Ralstonia pickettii), in [1], the Km is 2020 µM.

As for (Burkholderia cepacia), in [2] (pH 7.5), the Km is 1350 µM and the Vmax is 100 µmol/min/mg.

The record behind these values is patent US20120107903A1 (priority 2010, published 2012).
